Laboratory results: patent US20060165683A1, “Methods and compositions for control of bone formation via modulation of sympathetic tone” (priority 2001, published 2006)

How the values were obtained:
[1] = system: human SaOS-2 osteoblastic cells; assay: cAMP production in human SaOS-2 osteoblastic cells; format: cell-based; conditions: SaOS-2, 100 μM IBMX, 5 min treatment
Method: Primary osteoblast cultures were established as previously described (see, e.g., Ducy et al., 2000, Cell 100: 197-207) and maintained in αMEM/0.1 mg/ml ascorbic acid supplemented with 10% FBS. SaOS-2 were grown in MEM/10% FBS. For cAMP assay confluent cultures were incubated with serum free medium containing 100 μM IBMX (3-isobutyl-1-methylxanthine, Sigma) for 8 minutes before PBS, PTH(1-34) (Bachem), isoproterenol, norepinephrine, phenylephrine (Sigma) or propranolol were added for 5 min. Intracellular cAMP concentration was measured by immunoassay (R&D Systems). For gene expression analyses, primary osteoblasts were treated for 72 hours with appropriate drugs in 0.1% FBS. Hormone serum levels were quantified using immunoassays kits from Peninsula Laboratories (Insulin) or Alpco Diagnostics (leptin). Deoxypyridinoline cross-links and Creatinine were measured in morning urines using the Quidel kits. a1(I) leptin bioactivity was verified by cotransfection of 293 cells expressing ObRb with a STAT3-responsive-luc reporter construct, pSVβgal plasmid and a1(I) leptin expression vector or mock. Twenty-four hours later luciferase and β-galactosidase activities were measured. Data represents ratios of luciferase/β-galactosidase activities, and values are mean of 6 independent transfection experiments.
For a sympathetic regulation of bone formation to exist several requirements have to be fulfilled. The first one is that functional adrenergic receptors are present on osteoblasts. […] No other adrenergic receptor subtype could be detected. […] Thus, to assess the biologic relevance of the presence of β2-adrenergic receptors on osteoblasts, these cells were treated with isoproterenol, a β-adrenergic agonist, alone or in the presence of propranolol, a β-adrenergic receptor antagonist; with norepinephrine, the natural ligand of β-adrenergic receptors; with phenylephrine, an α-adrenergic agonist or with vehicle and measured cAMP production. […]

wt mice = assay: Long-term isoproterenol treatment of wt mice; format: in vivo, mouse
Method: Wildtype (C57BL/6J) and mutant (C57BL/6J A^y/a, C57BL/6J ob/ob) mice were obtained from the Jackson laboratory and adrenal medullectomized mice from Harlan Tecklad laboratory. Dbh−/− mice were rescued as previously described (Thomas et al., 1998, Neurochem 70:2468-2476). Isoproterenol (Sigma) was injected intraperitoneally (ip) once daily for 6 weeks at 30 mg/kg (wt) or 3 mg/kg (ob/ob). Propranolol (Sigma) was added to the drinking water at a concentration of 0.5 g/l. For ICV infusion, a 28-gauge cannula (Brain infusion kit II, Alza) was implanted into the third ventricle as previously described infusing human leptin (Sigma) at 8 ng/hr or MT-II at 125 ng/hr (Phoenix Pharmaceuticals) for 28 days (see, e.g., Ducy et al., 2000, Cell 100: 197-207). The cannula was connected to an osmotic pump (Alza) placed in the dorsal subcutaneous space of the animal. For parabiosis longitudinal incisions were made in the skin and in the peritoneal cavity along one side on each mouse. Edges of the incisions were connected by suture to induce coelioanastomosis. Cross-circulation was quantified by injecting 1 ml/kg 0.25% Evans blue into the tail vein of one mouse of the parabiosed pair. After 30 min. blood was collected from both mice by retroorbital bleeding and the blood exchange rate was calculated according to standard techniques (see, e.g., Harris & Martin, 1984, Am J Physiol 247:R380-386). […] Two weeks after parabiosis a pump delivering leptin ICV in one animal of each pair was implanted. For GTG lesioning, 4-week-old C57BL/6J mice were given a single ip injection of either PBS or GTG (0.5 mg/g). For MSG lesioning, 2 day-old C57BL/6J pups were injected daily subcutaneously with either PBS or MSG (2 mg/g) for 10 days.
Histological analyses were performed on undecalcified sections stained by von Kossa and counterstained by von Gieson (see, e.g., Ducy et al., 2000, Cell 100:197-207). Static and dynamic histomorphometric analyses were performed according to standard protocols (see, e.g., Parfitt et al., 1987, J Bone Miner Res 6:595-610) using the Osteomeasure Analysis System (Osteometrics, Atlanta). Six to 12 animals were analyzed for each group. Statistical significance was assessed by Student's t test.
To address this point one month-old ob/ob mice were treated for 6 weeks with the β-adrenergic agonist isoproterenol or vehicle. […] To determine the role of the SNS in animals that have none of the metabolic and neurological abnormalities caused by leptin deficiency, this experiment was repeated in wt mice.

MSG-lesioned ob/ob mice = assay: Leptin ICV infusion in MSG-lesioned ob/ob mice; format: in vivo, mouse
Method: (§1) Wildtype (C57BL/6J) and mutant (C57BL/6J A^y/a, C57BL/6J ob/ob) mice were obtained from the Jackson laboratory and adrenal medullectomized mice from Harlan Tecklad laboratory. Dbh−/− mice were rescued as previously described (Thomas et al., 1998, Neurochem 70:2468-2476). Isoproterenol (Sigma) was injected intraperitoneally (ip) once daily for 6 weeks at 30 mg/kg (wt) or 3 mg/kg (ob/ob). Propranolol (Sigma) was added to the drinking water at a concentration of 0.5 g/l. For ICV infusion, a 28-gauge cannula (Brain infusion kit II, Alza) was implanted into the third ventricle as previously described infusing human leptin (Sigma) at 8 ng/hr or MT-II at 125 ng/hr (Phoenix Pharmaceuticals) for 28 days (see, e.g., Ducy et al., 2000, Cell 100: 197-207). The cannula was connected to an osmotic pump (Alza) placed in the dorsal subcutaneous space of the animal. For parabiosis longitudinal incisions were made in the skin and in the peritoneal cavity along one side on each mouse. Edges of the incisions were connected by suture to induce coelioanastomosis. Cross-circulation was quantified by injecting 1 ml/kg 0.25% Evans blue into the tail vein of one mouse of the parabiosed pair. After 30 min. blood was collected from both mice by retroorbital bleeding and the blood exchange rate was calculated according to standard techniques (see, e.g., Harris & Martin, 1984, Am J Physiol 247:R380-386). […]

[2] = system: propranolol-treated wt mice; assay: Leptin ICV infusion in propranolol-treated mice; format: in vivo, mouse; conditions: centrally delivered leptin
Method: as §1

| Molecule | cAMP production [1] | expression of uncoupling protein 1 (Ucp1) in brown adipose tissue (wt mice) | bone mass (wt mice; 30 mg/kg ip once daily, 6 weeks) | body weight (wt mice; 30 mg/kg, 6 weeks) | bone formation rate (wt mice; 30 mg/kg, 6 weeks) | osteoblast number (wt mice; 30 mg/kg, 6 weeks) | Bone Volume (MSG-lesioned ob/ob mice) | body weight (MSG-lesioned ob/ob mice) | bone mass [2] | fat pads [2] |
| --- | --- | --- | --- | --- | --- | --- | --- | --- | --- | --- |
| CC(C)NCC(O)c1ccc(O)c(O)c1 (stereo not shown) [isoproterenol] | induced | increased | significantly decreased | without affecting | significantly decreased | significantly decreased |  |  |  |  |
| leptin: polypeptide hormone, product of the ob gene; human leptin (Sigma) infused ICV (protein) VPIQKVQDDTKTLIKTIVTRINDISHTQSVSAKQRVTGLDFIPGLHPILSLSKMDQTLAVYQQVLTSLPSQNVLQIANDLENLRDLLHLLAFSKSCSLPQTSGLQKPESLDGVLEASLYSTEVVALSRLQGSLQDILQQLDVSPEC |  |  |  |  |  |  | decreases | does not affect | did not affect | disappearance |
